# In patent US20250136596A1, “MEMBRANE-ASSOCIATED TYROSINE- AND THREONINE-SPECIFIC CDC2-INHIBITORY KINASE (PKMYT1) INHIBITORS AND USES THEREOF” (Insilico Medicine IP Limited, priority 2022, published 2025):
# Target: PKMYT1 (Homo sapiens (Human), UniProt Q99640)
# Test: PKMYT1 HTRF Assay
# Format: binding
# Details: Tracer 178, GST-Tb; compound 10 μM to 0.5 nM; read-out: MYT1 HTRF IC50
# Protocol: Example A: PKMYT1 HTRF Assay
# Compound serial dilution is performed by Echo, and the final concentrations vary from 10 μM to 0.5 nM. This was filled by the addition of 5 μL/well of Enzyme solution to the assay plate containing the compound. The plate was centrifuged at 1000 rpm for 1 minute, and incubate 15 minutes at 25 ? . Then 5 μL/well of tracer solution (Tracer 178) was added to initiate the reaction, and incubate for 60 minutes at 25° C. Next 5 μL GST-Tb was added into the assay plate, the plate was centrifuged at 1000 rpm for 1 minute, and incubate for 15 minutes at 25 ? . The assay plate was read on Envision.
# PKMYT1, sequence (Q99640 whole entry): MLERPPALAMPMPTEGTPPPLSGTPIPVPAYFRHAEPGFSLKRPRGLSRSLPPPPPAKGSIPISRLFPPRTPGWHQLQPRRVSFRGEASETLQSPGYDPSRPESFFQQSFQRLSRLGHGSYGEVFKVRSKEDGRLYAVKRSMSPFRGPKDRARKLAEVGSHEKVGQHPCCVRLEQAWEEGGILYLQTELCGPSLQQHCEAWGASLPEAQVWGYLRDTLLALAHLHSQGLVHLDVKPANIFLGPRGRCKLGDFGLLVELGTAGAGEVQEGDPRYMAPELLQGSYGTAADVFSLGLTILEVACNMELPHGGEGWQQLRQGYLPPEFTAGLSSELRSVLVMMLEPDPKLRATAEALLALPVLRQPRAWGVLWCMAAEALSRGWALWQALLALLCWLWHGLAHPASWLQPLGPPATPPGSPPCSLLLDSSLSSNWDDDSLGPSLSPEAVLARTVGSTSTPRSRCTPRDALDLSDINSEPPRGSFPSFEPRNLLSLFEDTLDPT
row,Compound,IC50 [nM]
1,"Cc1ccc(O)c(C)c1-c1cnc2[nH]c(-c3cncc(N4CCC(O)CC4)c3)cc2c1C#N [Example 89, 5-(3-hydroxy-2,6-dimethylphenyl)-2-(5-(4-hydroxypiperidin-1-yl)pyridin-3-yl)-1H-pyrrolo[2,3-b]pyridine-4-carbonitrile]",< 10
2,"Cc1ccc(-c2cc3nc(-c4c(C)ccc(O)c4C)cnc3[nH]2)cn1 [Example 11, 2,4-dimethyl-3-(6-(6-methylpyridin-3-yl)-5H-pyrrolo[2,3-b]pyrazin-2-yl)phenol]",< 10
3,"Cc1ccc(O)c(C)c1-c1cnc2[nH]c(-n3cncn3)cc2c1C#N [Example 121, (S)-5-(3-hydroxy-2,6-dimethylphenyl)-2-(1H-1,2,4-triazol-1-yl)-1H-pyrrolo[2,3-b]pyridine-4-carbonitrile]",< 10
4,"Cc1ccc(O)c(C)c1-c1cnc2[nH]c(-c3cnc(NC4CC(O)C4)nc3)cc2c1C#N [Example 102, (R)-5-(3-hydroxy-2,6-dimethylphenyl)-2-(2-((3-hydroxycyclobutyl)amino)pyrimidin-5-yl)-1H-pyrrolo[2,3-b]pyridine-4-carbonitrile]",< 10
5,"COCCn1ncc(-c2[nH]c3ncc(-c4c(C)ccc(O)c4C)c(C#N)c3c2Cl)cc1=O [Example 67, (R)-3-chloro-5-(3-hydroxy-2,6-dimethylphenyl)-2-(1-(2-methoxyethyl)-6-oxo-1,6-dihydropyridazin-4-yl)-1H-pyrrolo[2,3-b]pyridine-4-carbonitrile]",< 10
6,"Cc1ccc(O)c(C)c1-c1cnc2[nH]c(-c3cnc(N4CC(O)C(F)C4)nc3)cc2c1C#N [Example 100, (R)-2-(2-((3S,4S)-3-fluoro-4-hydroxypyrrolidin-1-yl)pyrimidin-5-yl)-5-(3-hydroxy-2,6-dimethylphenyl)-1H-pyrrolo[2,3-b]pyridine-4-carbonitrile]",< 10
7,"Cc1ccc(O)c(C)c1-c1cnc2[nH]c(-c3cnc(N4CC(C)(O)C4)nc3)c(Cl)c2n1 [Example 17, 1-(5-(7-chloro-2-(3-hydroxy-2,6-dimethylphenyl)-5H-pyrrolo[2,3-b]pyrazin-6-yl)pyrimidin-2-yl)-3-methylazetidin-3-ol]",< 10
8,"COCCOc1ncc(-c2[nH]c3ncc(-c4c(C)ccc(O)c4C)c(C#N)c3c2Cl)cn1 [Example 76, (R)-3-chloro-5-(3-hydroxy-2,6-dimethylphenyl)-2-(2-(2-methoxyethoxy)pyrimidin-5-yl)-1H-pyrrolo[2,3-b]pyridine-4-carbonitrile]",< 10
9,"Cc1ccc(O)c(C)c1-c1cnc2[nH]c(-c3ccc(N4CCN(C)CC4)nc3)c(C)c2c1 [Example 3, 2,4-dimethyl-3-(3-methyl-2-(6-(4-methylpiperazin-1-yl)pyridin-3-yl)-1H-pyrrolo[2,3-b]pyridin-5-yl)phenol]",50 to 500
10,"Cc1ccc(O)c(C)c1-c1cnc2[nH]c(-c3cnc(NC4CC4)nc3)c(Cl)c2c1C#N [Example 48, (R)-3-chloro-2-(2-(cyclopropylamino)pyrimidin-5-yl)-5-(3-hydroxy-2,6-dimethylphenyl)-1H-pyrrolo[2,3-b]pyridine-4-carbonitrile]",< 10
11,"Cc1ccc(O)c(C)c1-c1cnc2[nH]c(-c3ccc(N4CCN(C)CC4)nc3)cc2c1 [Example 4, 2,4-dimethyl-3-(2-(6-(4-methylpiperazin-1-yl)pyridin-3-yl)-1H-pyrrolo[2,3-b]pyridin-5-yl)phenol]",50 to 500
12,"Cc1ccc(O)c(C)c1-c1cnc2[nH]c(-c3cnc(C)c(=O)[nH]3)c(Cl)c2c1C#N [Example 64, 3-chloro-5-(3-hydroxy-2,6-dimethylphenyl)-2-(5-methyl-6-oxo-1,6-dihydropyrazin-2-yl)-1H-pyrrolo[2,3-b]pyridine-4-carbonitrile]",10 to 50
13,"Cc1ccc(O)c(C)c1-c1cnc2[nH]c(-c3cncnc3)cc2c1C#N [Example 80, (R)-5-(3-hydroxy-2,6-dimethylphenyl)-2-(pyrimidin-5-yl)-1H-pyrrolo[2,3-b]pyridine-4-carbonitrile]",< 10
14,"Cc1ncc(-c2[nH]c3ncc(-c4c(C)ccc(O)c4C)nc3c2F)cn1 [Example 12, 3-(7-fluoro-6-(2-methylpyrimidin-5-yl)-5H-pyrrolo[2,3-b]pyrazin-2-yl)-2,4-dimethylphenol]",10 to 50
15,"Cc1ccc(O)c(C)c1-c1cnc2[nH]c(-c3cnc(N4CC(C(=O)O)C4)nc3)cc2c1C#N [Example 69, (R)-1-(5-(4-cyano-5-(3-hydroxy-2,6-dimethylphenyl)-1H-pyrrolo[2,3-b]pyridin-2-yl)pyrimidin-2-yl)azetidine-3-carboxylic acid]",< 10
16,"Cc1ccc(O)c(C)c1-c1cnc2[nH]c(C3=CCCOC3)cc2c1C#N [Example 36, 2-(5,6-dihydro-2H-pyran-3-yl)-5-(3-hydroxy-2,6-dimethylphenyl)-1H-pyrrolo[2,3-b]pyridine-4-carbonitrile]",10 to 50

row,Compound,IC50 [nM]
1,"Cc1ccc(-c2cc3cc(-c4c(C)ccc(O)c4C)cnc3[nH]2)cn1 [Example 5, 2,4-dimethyl-3-(2-(6-methylpyridin-3-yl)-1H-pyrrolo[2,3-b]pyridin-5-yl)phenol]",10 to 50
2,"Cc1ncc(-c2[nH]c3ncc(-c4c(C)ccc(O)c4C)nc3c2Cl)cn1 [Example 16, 3-(7-chloro-6-(2-methylpyrimidin-5-y1)-5H-pyrrolo[2,3-b]pyrazin-2-yl)-2,4-dimethylphenol]",< 10
3,"Cc1ccc(O)c(C)c1-c1cnc2[nH]c(-c3cnc(N4CC(C)(O)C4)nc3)cc2c1Cl [Example 25, (S)-1-(5-(4-chloro-5-(3-hydroxy-2,6-dimethylphenyl)-1H-pyrrolo[2,3-b]pyridin-2-yl)pyrimidin-2-yl)-3-methylazetidin-3-ol]",< 10
4,"Cc1ncc(-c2cc3c(C#N)c(-c4c(C)ccc(O)c4C)cnc3[nH]2)c(N)n1 [Example 92, 2-(4-amino-2-methylpyrimidin-5-yl)-5-(3-hydroxy-2,6-dimethylphenyl)-1H-pyrrolo[2,3-b]pyridine-4-carbonitrile]",< 10
5,"Cc1ncc(-c2cc3c(C(F)(F)F)c(-c4c(C)ccc(O)c4C)cnc3[nH]2)cn1 [Example 31, (R)-2,4-dimethyl-3-(2-(2-methylpyrimidin-5-yl)-4-(trifluoromethyl)-1H-pyrrolo[2,3-b]pyridin-5-yl)phenol]",< 10
6,"Cc1ccc(O)c(C)c1-c1cnc2[nH]c(-c3cnc(C(F)(F)F)nc3)cc2c1C#N [Example 55, 5-(3-hydroxy-2,6-dimethylphenyl)-2-(2-(trifluoromethyl)pyrimidin-5-yl)-1H-pyrrolo[2,3-b]pyridine-4-carbonitrile]",< 10
7,"Cc1ccc(O)c(C)c1-c1cnc2[nH]c(-c3cnc(C4CC4)nc3)c(Cl)c2c1C#N [Example 57, (S)-3-chloro-2-(2-cyclopropylpyrimidin-5-yl)-5-(3-hydroxy-2,6-dimethylphenyl)-1H-pyrrolo[2,3-b]pyridine-4-carbonitrile]",< 10
8,"Cc1ccc(O)c(C)c1-c1cnc2[nH]c(-c3cnc(N4C5CC[C@@H]4COC5)nc3)cc2c1C#N [Example 99, (5R)-2-(2-(3-oxa-8-azabicyclo[3.2.1]octan-8-yl)pyrimidin-5-yl)-5-(3-hydroxy-2,6-dimethylphenyl)-1H-pyrrolo[2,3-b]pyridine-4-carbonitrile]",< 10
9,"Cc1ccc(O)c(C)c1-c1cnc2[nH]c(-c3cnc(N4CC(O)C4)nc3)c(Cl)c2c1C#N [Example 46, (R)-3-chloro-5-(3-hydroxy-2,6-dimethylphenyl)-2-(2-(3-hydroxyazetidin-1-yl)pyrimidin-5-y1)-1H-pyrrolo[2,3-b]pyridine-4-carbonitrile]",< 10
10,"Cc1ccc(O)c(C)c1-c1cnc2[nH]c(-c3cnc(O)nc3)cc2c1C#N [Example 52, (R)-5-(3-hydroxy-2,6-dimethylphenyl)-2-(2-hydroxypyrimidin-5-yl)-1H-pyrrolo[2,3-b]pyridine-4-carbonitrile]",< 10
11,"Cc1ncc(-c2[nH]c3ncc(-c4c(C)ccc(O)c4C)c(Cl)c3c2F)cn1 [Example 24, (S)-3-(4-chloro-3-fluoro-2-(2-methylpyrimidin-5-yl)-1H-pyrrolo[2,3-b]pyridin-5-yl)-2,4-dimethylphenol]",< 10
12,"Cc1ncc(-c2[nH]c3ncc(-c4c(C)ccc(O)c4C)c(C#N)c3c2C#CC(C)(C)O)cn1 [Example 110, (S)-5-(3-hydroxy-2,6-dimethylphenyl)-3-(3-hydroxy-3-methylbut-1-yn-1-yl)-2-(2-methylpyrimidin-5-yl)-1H-pyrrolo[2,3-b]pyridine-4-carbonitrile]",< 10
13,"Cc1ncc(-c2[nH]c3ncc(-c4c(C)ccc(O)c4C)c(C#N)c3c2Cl)c(C)n1 [Example 78, (R)-3-chloro-2-(2,4-dimethylpyrimidin-5-yl)-5-(3-hydroxy-2,6-dimethylphenyl)-1H-pyrrolo[2,3-b]pyridine-4-carbonitrile]",50 to 500
14,"Cc1ccc(O)c(C)c1-c1cnc2[nH]c(-c3cnc(N4C[C@@H]5C[C@H]4CO5)nc3)cc2n1 [Example 128, 3-(6-(2-((1S,4S)-2-oxa-5-azabicyclo[2.2.1]heptan-5-yl)pyrimidin-5-yl)-5H-pyrrolo[2,3-b]pyrazin-2-yl)-2,4-dimethylphenol]",< 10
15,"Cc1ccc(O)c(C)c1-c1cnc2[nH]c(-c3cnc(NC4COC4)nc3)cc2c1C#N [Example 98, (R)-5-(3-hydroxy-2,6-dimethylphenyl)-2-(2-(oxetan-3-ylamino)pyrimidin-5-yl)-1H-pyrrolo[2,3-b]pyridine-4-carbonitrile]",< 10
16,"Cc1ncc(-c2cc3cc(-c4c(C)ccc(O)c4C)cnc3[nH]2)cn1 [Example 7, 2,4-dimethyl-3-(2-(2-methylpyrimidin-5-yl)-1H-pyrrolo[2,3-b]pyridin-5-yl)phenol]",10 to 50
